# From paper PMC10901950, “Neuroprotective and Anti-inflammatory Effects of Rubiscolin-6 Analogs with Proline Surrogates in Position 2” (Neurochemical Research, 2023)
# Legend:
# SH-SY5Y cells [1] = test: Neuroprotection in 6-OHDA-treated SH-SY5Y cells (MTT); assay type: cell-based, human; settings: 6-OHDA 100 µM, 24 h, vehicle 100.00 ± 4.60%
# Description: The neuroprotective experiments were performed in an in vitro model of a human neuroblastoma cell line (SH-SY5Y) obtained from the German Collection of Microorganisms and Cell Cultures GmbH (DSMZ) Bank (ACC 209). Cells were cultured in Dulbecco’s Modified Eagle’s Medium: Nutrient Mixture F12 (DMEM:F12) supplemented with 1% antibiotic/antimycotic (Amphotericin B, Penicillin and Streptomycin) (Biowest, Nuaillé, France) and 10% (v/v) Fetal Bovine Serum (FBS) (Biowest, Riverside, MO, USA). The anti-inflammatory experiments were performed in an in vitro model of mouse macrophage-like RAW 264.7 cells, purchased from American Type Culture Collection (ATCC, Manassas, VA, USA). Cells were maintained in DMEM medium (Gibco™, Grand Island, NY) and supplemented with 10% bovine calf serum (BCS) (Gibco™, Grand Island, NY) and 1% penicillin–streptomycin (Sigma-Aldrich, St. Louis, MO, USA). Cell cultures were kept at 37 °C in 5% CO2/humidified air.
# Cells were incubated with peptides (0.1–10 µM) for 24 h to assess their cytotoxic activity. In the neuroprotective model, SH-SY5Y cells were exposed to 6-OHDA (100 µM) in the absence/presence of peptide at non-toxic concentrations (0.1–10 µM). When needed, a 30 min pre-incubation step with β-funaltrexamine (β-FNA, µ-opioid receptor antagonist, 10 µM), naltrindole (NLT, δ-opioid receptor antagonist, 10 µM), 2’-amino-3’-methoxyflavone (PD 98059, MAPK kinase 1 (MEK 1) inhibitor, 50 µM) or 2-(4-morpholinyl)-8-phenyl-4H-1-benzopyran-4-one (LY 294002, PI3-K inhibitor, 20 µM). Stimulation was terminated by aspiration of the medium and adding 100 µL MTT (1.2 mM) per well. Cells were incubated for 1 h at 37 °C. After this time, MTT was removed, and 100 µL DMSO was added. The resulting absorbance was read in a microplate reader (Biotek, Epoch/2 microplate reader, Winooski, VT, USA) at 570 nm.
# Cell metabolic activity (cytotoxicity) was calculated as the percentage of the value obtained for cells incubated with compounds compared to control cells treated with the medium.
# SH-SY5Y cells [2] = test: Intracellular ROS production in 6-OHDA-treated SH-SY5Y cells; assay type: cell-based, human; settings: 6-OHDA 100 µM
# Description: (§1) The detection of ROS generated in injured cells was evaluated using the 5(6)-carboxy-2ʹ,7ʹ-dichlorofluorescein diacetate (carboxy-H2DCFDA) reagent (Invitrogen, Bleiswijk, Netherlands). After incubation, cells were washed with ice-cold Phosphate-Buffer Saline (PBS). Then, the carboxyl-H2DCFDA (100 µL, 20 µM) reagent was added and incubated for 1 h at 37 °C. Finally, the fluorescence intensity was measured at wavelengths of […], and ROS levels were presented in percentage of control (non-treated cells).
# SH-SY5Y cells [3] = test: Mitochondrial membrane potential (JC-1) in 6-OHDA-treated SH-SY5Y cells; assay type: cell-based, human; settings: 6-OHDA 100 µM, 6 h, JC-1
# Description: Mitochondrial function was assessed by monitoring changes in MMP (∆Ψm) using the fluorescent probe, JC-1 fluorescence dye (5,5′,6,6′-tetrachloro-1,1′,3,3′-tetraethyl-imidacarbocyanine iodide, Molecular Probes, T3168, Eugene, Oregon, USA). The assay was performed according to the method described by Silva et al.. Briefly, SH-SY5Y cells were exposed 6 h to 6-OHDA (100 μM) in the presence or absence of peptides. After incubation, cells were washed with ice-cold PBS, and then JC-1 reagent (3 µM, 200 µL) was added for 15 min at 37 °C. Afterwards, JC-1 was removed, and cells were washed with PBS. The formation of JC-1 aggregates (490 nm of excitation and 590 nm of emission) and the monomeric form of JC-1 (490 nm of excitation and 530 nm of emission) was accompanied simultaneously in the plate reader for 30 min. Results were expressed as the ratio of the monomers/aggregates of JC-1 in the percentage of control.
# AKT = test: Western blot, AKT phosphorylation in 6-OHDA-treated SH-SY5Y cells; assay type: cell-based, human; settings: peptide 10 µM, 2.5-10 min, 6-OHDA 100 µM treated cells
# Description: The neuroblastoma SH-SY5Y cells were grown in a 6-well plate and when 80–90% confluent treated with 6-OHDA (100 µM) for 24 h. Then cells were stimulated with peptides for 2.5, 5, 7.5 and 10 min (for AKT) or 24 h (for mTOR). When needed, a 30 min pre-incubation step with LY 294002 was included before analogs and 6-OHDA addition. Stimulation was terminated by aspiration of the medium. Cells were washed 2 times with ice-cold PBS, and then 200 µL of ice-cold lysis buffer [150 mM NaCl, 20 mM Tris–HCl, glycerol, 5 mM EDTA, 0.5 mM phenylmethylsulphonylfluoride (PMSF), 10% Triton X-100, 100 mM protease inhibitors, pH 7.4] was added. Cells were incubated on ice for 15 min. Lysates were then centrifuged at 12,000×g for 10 min at 4 °C, and the supernatants were used as the total cell lysates. The protein content in the supernatants was quantified using the Bio-Rad protein assay kit. Equal amounts of protein were separated on 10% sodium dodecyl sulfate (SDS)-polyacrylamide gels and transferred to polyvinylidene difluoride membranes from (PVDF, Millipore, Cork, Ireland). Non-specific binding was blocked with tris-buffered saline Tween-20 (TBS-T: 150 mM NaCl, 20 mM Tris–HCl, 0.1% Tween 20, pH 7.5) containing 5% nonfat milk for 2 h at room temperature. Then, the membrane was incubated overnight at 4 °C with one of the following specific primary antibodies: Vinculin (1:1000 dilution; Cell Signalling Technology, Danvers, MA, USA), p-AKT (1:1000 dilution; Cell Signalling Technology, Danvers, MA, USA), AKT (1:1000 dilution; Cell Signalling Technology, Danvers, MA, USA), p-mTOR (1:1000 dilution; Cell Signalling Technology, Danvers, MA, USA), mTOR (1:1000 dilution; Cell Signalling Technology, Danvers, MA, USA). After incubation, membranes were washed six times per 5 min with TBS-T. In the next step, membranes were incubated with HRP-conjugated secondary antibodies (1:1000 dilution; Cell Signalling Technology, Danvers, MA, USA) for 1 h. Following six washes with TBS-T, the protein bands were detected with the Clarity Western ECL reagent from Bio-Rad. The band intensity was quantified by NIH ImageJ densitometric analysis. For quantification, specific phosphorylation was calculated as the ratio of phosphorylated AKT or mTOR signals to the total Akt or mTOR signal detected. Values of unstimulated samples were set to 1.0. The original immunoblots are provided in Supplementary data.
# Caspase-3 = Caspase-3 activity in 6-OHDA-treated SH-SY5Y cells; assay type: cell-based, human; settings: STAU 1 µM, positive control
# Description: Caspase-3 activity was assessed using “Caspase-3 fluorometric assay” (Sigma, St. Louis, MO, USA) with minor changes adapted by Silva et al.. The cells were treated with 6-OHDA (100 µM) for 6 h in the presence or absence of peptides. After this period, the culture medium was removed, and cells were rinsed with ice-cold PBS and collected by centrifugation at 3300×g for 5 min. The pellets were resuspended in lysis buffer, incubated for about 20 min on ice and finally centrifuged at 22,500×g, 4 °C, for 20 min. Cell lysates were processed following the manufacturer’s protocol, and fluorescence was read at wavelengths of 360 nm (excitation) and 460 nm (emission). Caspase-3 activity was calculated through the curve slope and presented as Δ fluorescence (a.u.)/mg of protein/min). Staurosporine (STAU, 1 µM) was used as positive control.
# [4] = test system: LPS-stimulated RAW 264.7 cells; test: Nitric oxide production in LPS-stimulated RAW 264.7 cells (Griess); assay type: cell-based, mouse; settings: LPS 1 µg/mL
# Description: The level of NO production was determined in RAW 264.7 cells. Briefly, after cells attachment, they were treated with LPS (Millipore Sigma, Darmstadt, Germany) at 1 µg/mL for 24 h, and then the peptides were added for an additional 24 h. After cells’ treatment, the medium was collected, and the accumulation of NO metabolite in the cell culture supernatant was measured using Griess reagent (1% sulfanilamide and 0.1% naphthylethylenediamine dihydrochloride; Sigma Aldrich), where 50 µL of the supernatant was mixed with 50 µL of Griess reagent (40 mg/mL) in a 96-well plate. After incubation at room temperature and darkness for 10 min, the absorbance was measured at 540 nm. Cells treated with LPS without samples were used as the positive control of the inflammatory response.
# [5] = test system: LPS-stimulated RAW 264.7 cells; test: Intracellular ROS formation in LPS-stimulated RAW 264.7 cells; assay type: cell-based, mouse; settings: LPS 1 µg/mL
# Description: The cytotoxic and anti-inflammatory effects of peptides on RAW 264.7 cells were estimated using MTT assay. Cells were incubated with peptides (0.1–10 µM) for 24 h to assess their cytoprotective activity. In the anti-inflammatory model, RAW 264.7 cells were exposed to LPS (Millipore Sigma, Darmstadt, Germany) at 1 µg/mL in the absence/presence of peptide at non-toxic concentrations (0.1–10 µM). Then, the MTT reagent was added to wells, and cells were incubated for 1.5 h at 37 °C. After this time, MTT was removed, 100 µL DMSO was added, and the resulting absorbance was read in a microplate reader (Synergy 2 BioTek Microplate Reader, Winooski, VT, USA) at 570 nm.
# as §1
compound,measurement,setting,value
"NCCc1cc(O)c(O)cc1O [6-OHDA, 6-hydroxydopamine, reference compound]",viable cells after 6-OHDA exposure,SH-SY5Y cells [1],48.63 ± 1.25 % of viable cells
same,increase of ROS levels compared with vehicle,SH-SY5Y cells [2],around 80%
same,increase of MMP depolarization compared to vehicle,SH-SY5Y cells [3],114%
same,AKT phosphorylation,AKT,blocked
"CN[C@@H]1C[C@H]2O[C@@](C)([C@@H]1OC)n1c3ccccc3c3c4c(c5c6ccccc6n2c5c31)C(=O)NC4 [STAU, Staurosporine, reference compound]",effect on Caspase-3 activity,Caspase-3,marked increase
"lipopolysaccharide [LPS, reference compound]",NO levels compared to the unstimulated control,[4],exceeded 330%
same,ROS level compared to the control,[5],increased almost twice
